Patent US11518765B2, “Substituted pyrimidine derivatives useful in the treatment of autoimmune diseases” (THE PROVOST, FELLOWS, FOUNDATION SCHOLARS, AND THE OTHER …, priority 2015, dated 2022)

Experiments:
Format in all cases: in vivo, mice (C57BL/6)
[1] = tested on: chronic monophasic EAE disease in mice; test: chronic monophasic EAE disease in mice, EAE score (disease severity); settings: FIG. 1
Method: (§1) To assess the potential of these compounds in vivo, a chronic monophasic EAE disease in mice was induced before treatment with the new chemical entity (NCE). EAE Disease was induced in 8-10 week old female mice (C57BL/6) by subcutaneous (s.c.) injection of 200 μl emulsion containing 150 μg […] peptide (Genscript) in Complete Freund's Adjuvant (CFA; containing 5 mg/ml heat-inactivated Mycobacterium tuberculosis). On the same day, mice were administered 500 ng Pertussis Toxin (Kaketsuken, Japan) intraperitoneally (i.p.) and again two days later. Disease severity was recorded every 24 hours: 0-Normal; 1-flaccid tail; 2-imparied/wobbly gait; 3-complete hind limb weakness; 4-hind limb and forelimb paralysis; 5-moribund state/dead. Protocol is based on the Nature Protocols for Active induction of experimental allergic encephalomyelitis, which includes the scoring methodology: • Stromnes I M, Goverman J M (2006) Active induction of experimental allergic encephalomyelitis. Nat Protoc. 1(4):1810-9.
The EAE score relates to an assessment of disease progression with respect to issues like tail paralysis and limb paralysis, a higher score is a worse condition. A score of 1 indicates decreased tail tone, a score of 2 indicates hind leg weakness (paraparesis), a score of 3 indicates hind limb paralysis and/or incontinence. Note that the untreated animals have a continuous and progressive worsening of disease.

[2] = tested on: chronic monophasic EAE disease in mice; test: motor coordination and hind-limb strength: ability of EAE mice to cross a horizontal bar; settings: EAE diseased mice, within 4 treatments; FIG. 3
Method: as §1
(§2) This contrasts with the sustained drop in body weight of non-treated EAE diseased animals to a level 86.4% that of controls at 21 dpi (17.8 grams versus 20.6 grams). Motor coordination and hind-limb strength were also evaluated by the ability of mice to cross a horizontal bar (FIG. 3). Non-diseased animals crossed the bar with an average time of 4.3±0.57 seconds.

[3] = body weight of EAE diseased mice; settings: treated EAE animals, FIG. 2
Method: as §1, §2

## Cl.Nc1nc2[nH]cc(CNCCCc3ccccc3)c2c(=O)[nH]1 [Compound I, N-((2-amino-4-oxo-4,7-dihydro-3H-pyrrolo[2,3-d]pyrimidin-5-yl)methyl)-3-phenylpropan-1-aminium chloride]
[1]; 30 mg/kg, i.p., after 4 daily treatments
  EAE scoring after treatment: disease free
[1]; highest dosage given, 30 mg/kg, i.p.
  time to reversal of symptoms (EAE score): ≤ 24 h
[1]; lower doses, animals slower to respond
  disease progression (EAE score): halted and reversed
[2]
  performance crossing a horizontal bar: fully restored the performance of EAE diseased mice to control levels
[3]; 21 dpi, controls 20.6 grams
  body weight: 19.9 grams
[3]; 21 days post inoculation (dpi)
  body weight level relative to controls: 96.6%
